# Read-outs that look alike come from different tables or passages of the source.
# Tested on: C4–2B prostate cancer xenografts
# Format: in vivo, athymic (BALB/c nu/nu) mice
# Conditions: for blood clearance (in words): 1 and 4 h pi
# [1] = C4–2B xenograft, 4 h pi, tail vein injection
# [2] = C4–2B xenograft, time point not stated at the place (study at 1, 4, 24 h pi)
tumor concentration relative to [131I]16a (C4–2B xenograft),tumor concentration [1],tumor concentration [2],blood clearance (in words),concentration in all the tissues except for the intestine (1 h pi),intestine concentration (1 h pi) [%ID/g],tumor uptake / tumor targeting (in words) (C4–2B xenograft),highest spleen concentration (1 h pi) [%ID/g],tumor concentration relative to blood concentration (1 h pi) [×],kidney concentration (4 h pi),tumor concentration relative to blood concentration (4 h pi) [×],"kidney concentration (4 h pi, listed as 16a) [%ID/g]","tumor concentration (C4–2B xenograft, 1 h pi)","tumor concentration (C4–2B xenograft, at 1 and 4 h pi) [%ID/g]",Substance
~ 4 ×,~ 15 %ID/g,14–15 %ID/g,,,,,,,,,,,,3-B10H9-dioxa-5-LuG-dPEG4-Ph-Lys-Ac [[^131I]16b]
,,,rapid blood clearance,lower than 2 % ID/g,12,essentially no tumor uptake,,,,,,,,3-B10H9-dioxa-5-dPEG12CO2H-Ph-Lys-Ac [[^125I]9a]
,~ 4 %ID/g,~ 4 %ID/g,rapid blood clearance,,,,9,2.3,~ 94 %ID/g,4.7,94,~ 4 % ID/g,< 5,3-B10H9-dioxa-5-LuG-dPEG12-Ph-Lys-Ac [[^131I]16a]
